Results as given in the supplement of paper PMC9103864.

Experiments:
[1] = tested on: BMSC (primary human bone marrow mesenchymal stromal cells); assay: absolute EC50 for viability; higher = less sensitive
[2] = tested on: BMSC (primary human bone marrow mesenchymal stromal cells); assay: drug sensitivity score (DSS); higher = more sensitive

| Compound | absolute EC50 for viability [1] | drug sensitivity score [2] |
| --- | --- | --- |
| Cn1ncc(Cl)c1-c1cc(C(=O)N[C@H](CN)Cc2ccc(F)c(F)c2)oc1Cl [Uprosertib] | > 10 µM | 2.4 |
| CS(=O)(=O)c1ccc(-c2cnc(N)c(C(=O)Nc3ccccc3)n2)cc1 [VE-821] | > 10 µM | 0 |
| O=C(O)CC1CC(c2ccccc2)=NO1 (stereo unspecified) [VGX-1027] | > 10 µM | -0.1 |
| C=CC(=O)N1CC/C(=C\c2ccc(F)c([N+](=O)[O-])c2)C(=O)/C(=C/c2ccc(F)c([N+](=O)[O-])c2)C1 [VLX1570] | 1.4 µM | 9.6 |
| CNC(=O)c1ccccc1Nc1cc(Nc2ccc(N3CCOCC3)cc2OC)ncc1C(F)(F)F [VS-4718] | > 10 µM | 5.6 |
| CCCC(CCC)C(=O)O [Valproic acid] | > 1000 µM | 0 |
| CCCCC(=O)OCC(=O)[C@]1(O)Cc2c(O)c3c(c(O)c2[C@@H](O[C@H]2C[C@H](NC(=O)C(F)(F)F)[C@H](O)[C@H](C)O2)C1)C(=O)c1c(OC)cccc1C3=O [Valrubicin] | 0.489 µM | 10.8 |
| COc1cc2/c(=N/c3ccc(Br)cc3F)nc[nH]c2cc1OCC1CCN(C)CC1 [Vandetanib] | > 1 µM | 2.5 |
| CCc1c(C(=O)C(N)=O)c2c(OCC(=O)O)cccc2n1Cc1ccccc1 [Varespladib] | > 10 µM | 0 |
| C[C@@H]1COC(Nc2ccc3ncnc(Nc4ccc(OCc5nccs5)c(Cl)c4)c3c2)=N1 [Varlitinib] | > 10 µM | 0.4 |
| Clc1ccc(Nc2nnc(Cc3ccncc3)c3ccccc23)cc1 [Vatalanib] | > 10 µM | 0 |
| C[C@]1(c2nc3c(C(N)=O)cccc3[nH]2)CCCN1 [Veliparib] | > 10 µM | 0 |
| CCCS(=O)(=O)Nc1ccc(F)c(C(=O)c2c[nH]c3ncc(-c4ccc(Cl)cc4)cc23)c1F [Vemurafenib] | > 10 µM | 0 |
| CC1(C)CCC(CN2CCN(c3ccc(C(=O)NS(=O)(=O)c4ccc(NCC5CCOCC5)c([N+](=O)[O-])c4)c(Oc4cnc5[nH]ccc5c4)c3)CC2)=C(c2ccc(Cl)cc2)C1 [Venetoclax] | > 1 µM | 0 |
| O=C(/C=C\n1cnc(-c2cc(C(F)(F)F)cc(C(F)(F)F)c2)n1)NNc1ccccn1 [Verdinexor] | > 1 µM | 1.6 |
| CCCCOc1nc(N)c2c(n1)N(Cc1cccc(CN3CCCC3)c1)CC(=O)N2 [Vesatolimod] | > 10 µM | 0 |
| COc1cccc(-c2ccc(NC(=O)C3=C(C(=O)O)CCC3)c(F)c2)c1 [Vidofludimus] | > 10 µM | 0 |
| CC[C@]1(O)C[C@@H]2CN(CCc3c([nH]c4ccccc34)[C@@](C(=O)OC)(c3cc4c(cc3OC)N(C)[C@H]3[C@@](O)(C(=O)OC)[C@H](OC(C)=O)[C@]5(CC)C=CCN6CC[C@]43[C@@H]65)C2)C1 [Vinblastine] | > 1 µM | 1.9 |
| CC[C@]1(O)C[C@H]2CN(CCc3c([nH]c4ccccc34)[C@@](C(=O)OC)(c3cc4c(cc3OC)N(C=O)[C@H]3[C@@](O)(C(=O)OC)[C@H](OC(C)=O)[C@]5(CC)C=CCN6CC[C@]43[C@@H]65)C2)C1 [Vincristine] | > 1 µM | 3.4 |
| CC[C@]12C=CCN3CC[C@@]4(c5cc([C@@]6(C(=O)OC)C[C@@H]7C[C@@H](C(C)(F)F)CN(Cc8c6[nH]c6ccccc86)C7)c(OC)cc5N(C)[C@H]4[C@@](O)(C(=O)OC)[C@@H]1OC(C)=O)[C@@H]32 [Vinflunine] | > 1 µM | 2.8 |
| CCC1=C[C@@H]2CN(C1)Cc1c([nH]c3ccccc13)[C@@](C(=O)OC)(c1cc3c(cc1OC)N(C)[C@H]1[C@@](O)(C(=O)OC)[C@H](OC(C)=O)[C@]4(CC)C=CCN5CC[C@]31[C@@H]54)C2 [Vinorelbine] | 1.12 µM | 16.5 |
| CS(=O)(=O)c1ccc(C(=O)Nc2ccc(Cl)c(-c3ccccn3)c2)c(Cl)c1 [Vismodegib] | > 10 µM | 0 |
| CNC(=O)c1cccc(-c2ccc3c(N4CCOC[C@@H]4C)nc(N4CCOC[C@@H]4C)nc3n2)c1 [Vistusertib] | 0.488 µM | 13.7 |
| CC[C@@H]1C(=O)N(C)c2cnc(Nc3ccc(C(=O)N[C@H]4CC[C@H](N5CCN(CC6CC6)CC5)CC4)cc3OC)nc2N1C(C)C [Volasertib] | > 1 µM | 1.5 |
| O=C(CCCCCCC(=O)Nc1ccccc1)NO [Vorinostat] | 2.94 µM | 5.6 |
| Oc1nc(-c2ccc(C(F)(F)F)cc2)nc2c1CSCC2 [XAV-939] | > 10 µM | 1.5 |
| FC(F)c1nc2ccccc2n1-c1nc(N2CCOCC2)nc(N2CCOCC2)n1 [ZSTK474] | > 10 µM | 7.2 |
| Cc1sc2c(c1C)C(c1ccc(Cl)cc1)=N[C@@H](CC(=O)NCCCCNC(=O)COc1cccc3c1C(=O)N(C1CCC(=O)NC1=O)C3=O)c1nnc(C)n1-2 (stereo partly specified) [dBET1] | 2.05 µM | 8.2 |
